Test results published in US20020188132A1, “Heteroaryl acetylenic sulfonamide and phosphinic acid amide hydroxamic acid TACE inhibitors” (priority 1999, published 2002).

Experiments:
Assay type in all cases: biochemical
MMP-1 = target: T1, MMP-1 (Homo sapiens, UniProt P03956); assay: MMP-1 inhibition (thiopeptide or fluorescent peptide substrate)
T1 sequence (P03956 100-469): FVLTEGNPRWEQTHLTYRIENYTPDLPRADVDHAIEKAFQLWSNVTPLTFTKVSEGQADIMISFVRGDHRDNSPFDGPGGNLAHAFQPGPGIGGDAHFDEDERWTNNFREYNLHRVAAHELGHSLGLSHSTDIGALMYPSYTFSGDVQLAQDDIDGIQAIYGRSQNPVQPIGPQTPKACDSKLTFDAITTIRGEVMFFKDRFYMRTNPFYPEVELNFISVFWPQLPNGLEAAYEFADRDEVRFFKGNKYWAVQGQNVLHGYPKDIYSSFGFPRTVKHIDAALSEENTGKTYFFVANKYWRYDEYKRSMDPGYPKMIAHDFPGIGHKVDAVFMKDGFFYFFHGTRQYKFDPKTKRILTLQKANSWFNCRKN
Experimental: (§1) These standard pharmacological test procedures are based on the cleavage of a thiopeptide substrates such as Ac-Pro-Leu-Gly(2-mercapto-4-methyl-pentanoyl)-Leu-Gly-OEt by the matrix metalloproteinases MMP-1, MMP-13 (collagenases) or MMP-9 (gelatinase), which results in the release of a substrate product that reacts calorimetrically with DTNB (5,5′-dithiobis(2-nitro-benzoic acid)). The enzyme activity is measured by the rate of the color increase. The thiopeptide substrate is made up fresh as a 20 mM stock in 100% DMSO and the DTNB is dissolved in 100% DMSO as a 100 mM stock and stored in the dark at room temperature. […] The buffer, enzyme, vehicle or inhibitor, and DTNB/substrate are added in this order to a 96 well plate (total reaction volume of 200 μl) and the increase in color is monitored spectrophotometrically for 5 minutes at 405 nm on a plate reader and the increase in color over time is plotted as a linear line.
(§2) Alternatively, a fluorescent peptide substrate is used. […] Upon cleavage of the substrate by an MMP, the fluorescence that is generated is quantitated on the fluorescence plate reader. […] The reaction is read (excitation 340 nm, emission 444 nm) for 10 min. and the increase in fluorescence over time is plotted as a linear line.
(§3) For either the thiopeptide or fluorescent peptide test procedures, the slope of the line is calculated and represents the reaction rate. […]

MMP-9 = MMP-9 (Homo sapiens, UniProt P14780); assay: MMP-9 inhibition (thiopeptide or fluorescent peptide substrate)
Experimental: as §1, §2, §3

MMP-13 = MMP-13 (Homo sapiens, UniProt P45452); assay: MMP-13 inhibition (thiopeptide or fluorescent peptide substrate)
Experimental: as §1, §2, §3

TACE = TACE (Homo sapiens, UniProt P78536); assay: TACE inhibition (fluorescent peptidyl substrate)
Experimental: Using 96-well black microtiter plates, each well receives a solution composed of 10 μL TACE (final concentration 1 μg/mL), 70 μL Tris buffer, pH 7.4 containing 10% glycerol (final concentration 10 mM), and 10 μL of test compound solution in DMSO (final concentration 1 μM, DMSO concentration <1%) and incubated for 10 minutes at room temperature. The reaction is initiated by addition of a fluorescent peptidyl substrate (final concentration 100 μM) to each well and then shaking on a shaker for 5 sec.
The reaction is read (excitation 340 nm, emission 420 nm) for 10 min. and the increase in fluorescence over time is plotted as a linear line. The slope of the line is calculated and represents the reaction rate.
The linearity of the reaction rate is confirmed (r^2>0.85). The mean (x±sem) of the control rate is calculated and compared for statistical significance (p<0.05) with drug-treated rates using Dunnett's multiple comparison test. Dose-response relationships can be generate using multiple doses of drug and IC50 values with 95% CI are estimated using linear regression.

Sequence of TACE (P78536 215-824): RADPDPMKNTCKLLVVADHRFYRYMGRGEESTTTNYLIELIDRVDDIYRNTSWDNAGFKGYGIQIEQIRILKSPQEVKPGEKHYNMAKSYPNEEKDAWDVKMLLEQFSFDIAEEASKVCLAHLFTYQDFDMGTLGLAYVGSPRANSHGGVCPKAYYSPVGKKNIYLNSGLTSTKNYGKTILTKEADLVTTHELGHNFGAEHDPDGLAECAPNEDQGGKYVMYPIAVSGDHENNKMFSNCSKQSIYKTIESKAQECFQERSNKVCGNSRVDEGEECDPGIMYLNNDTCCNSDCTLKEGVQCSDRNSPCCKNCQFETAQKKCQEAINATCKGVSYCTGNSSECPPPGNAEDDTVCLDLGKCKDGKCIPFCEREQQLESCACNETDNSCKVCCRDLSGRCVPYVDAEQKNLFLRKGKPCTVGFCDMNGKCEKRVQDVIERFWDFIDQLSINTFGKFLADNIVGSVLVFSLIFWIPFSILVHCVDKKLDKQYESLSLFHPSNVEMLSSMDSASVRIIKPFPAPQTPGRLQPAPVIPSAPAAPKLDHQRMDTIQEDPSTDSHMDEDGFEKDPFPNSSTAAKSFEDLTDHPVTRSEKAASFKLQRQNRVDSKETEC
Sequence of MMP-9 (P14780 94-707): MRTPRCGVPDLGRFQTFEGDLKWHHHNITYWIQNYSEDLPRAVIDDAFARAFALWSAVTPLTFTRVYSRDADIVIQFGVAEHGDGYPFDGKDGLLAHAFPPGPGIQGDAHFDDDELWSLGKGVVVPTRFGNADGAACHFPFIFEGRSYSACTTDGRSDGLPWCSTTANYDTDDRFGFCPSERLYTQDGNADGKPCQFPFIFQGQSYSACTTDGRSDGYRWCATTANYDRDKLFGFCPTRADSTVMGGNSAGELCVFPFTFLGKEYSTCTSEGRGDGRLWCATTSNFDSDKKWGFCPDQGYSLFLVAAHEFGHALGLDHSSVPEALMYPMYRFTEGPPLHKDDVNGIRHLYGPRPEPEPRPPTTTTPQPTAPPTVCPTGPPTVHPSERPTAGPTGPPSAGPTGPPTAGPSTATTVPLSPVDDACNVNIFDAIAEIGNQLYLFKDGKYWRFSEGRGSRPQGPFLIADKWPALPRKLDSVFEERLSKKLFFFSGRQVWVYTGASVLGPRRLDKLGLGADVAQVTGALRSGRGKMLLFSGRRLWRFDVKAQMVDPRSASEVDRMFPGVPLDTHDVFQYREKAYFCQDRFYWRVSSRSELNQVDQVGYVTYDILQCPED

| Compound | IC50 (MMP-1) | IC50 (MMP-9) | IC50 (MMP-13) | IC50 (TACE) |
| --- | --- | --- | --- | --- |
| CC#CCOc1ccc(S(=O)(=O)N(C)c2c(C(=O)NO)cc(OC)nc2OC)cc1 [Example 33, 3-[Methyl-(4-but-2-ynyloxy-benzenesulfonyl)-animo]-N-hydroxy-2,6-dimethoxy-isonicotinamide] | ~10000 nM | 607 nM | 478 nM | 11 nM |
| CC#CCOc1ccc(S(=O)(=O)Nc2c(C(=O)NO)cc(OC)nc2OC)cc1 [Example 35, 3-(4-But-2-ynyloxy-benzenesulfonylamino)-N-hydroxy-2,6-dimethoxy-isonicotinamide] |  |  |  | 44 nM |
